# Measured values taken from ChEMBL document CHEMBL1145885, “Synthesis and GABA(A) receptor activity of a 6,19-oxido analogue of pregnanolone” (Bioorg Med Chem Lett, 2003).
# Calls of active or inactive are those of the source. The rule behind the calls is not given here.
# Tests used:
# Cricetinae gen. sp. = experiment: Compound was tested for reduction of 3-mercaptopropionic acid induced seizures in hamsters at 20 mg/kg; Active; assay type: functional, organism-based; design: dose 20 mg/kg; details: Cricetulus griseus
# [1] = target: GABA-A receptor; anion channel (Homo sapiens) (UniProt P14867+P47870+P18507+P28472+P48169+Q99928+Q9UN88+P34903+O00591+O14764+Q8N1C3+P18505+P78334+P47869+P31644+Q16445); experiment: GABA-induced 36Cl- influx in hamster cerebral cortex synaptoneurosomes at 0.1 uM; assay type: functional, tissue-based; details: Cricetulus griseus
smiles,measurement,setting,value
CC(=O)[C@H]1CCC2C3CC4OC[C@@]5(CC[C@@H](O)C=C45)C3CC[C@@]21C (some centres not stated),Activity,Cricetinae gen. sp.,Active
same,Activity,[1],Active
